The term Km denotes the substrate concentration at which the rate is half of its maximum.

For one molecule, Km results are on record in paper PMC6255212, “Coupled molecular dynamics mediate long- and short-range epistasis between mutations that affect stability and aggregation kinetics” (Proceedings of the National Academy of Sciences of the …, 2018).

This test has as its target T1, Escherichia coli transketolase (TK) (Escherichia coli, UniProt P27302).
T1 construct: gene tktA; homodimer of 70- to 74-kDa monomers; holo enzyme with ThDP and Mg2+
The test can be described thus: steady-state enzyme kinetics. Format: biochemical. To be noted: 50 mM Li-HPA (lithium beta-hydroxypyruvate, saturating), 4-80 mM glycolaldehyde.

T1 sequence (P27302 2-663): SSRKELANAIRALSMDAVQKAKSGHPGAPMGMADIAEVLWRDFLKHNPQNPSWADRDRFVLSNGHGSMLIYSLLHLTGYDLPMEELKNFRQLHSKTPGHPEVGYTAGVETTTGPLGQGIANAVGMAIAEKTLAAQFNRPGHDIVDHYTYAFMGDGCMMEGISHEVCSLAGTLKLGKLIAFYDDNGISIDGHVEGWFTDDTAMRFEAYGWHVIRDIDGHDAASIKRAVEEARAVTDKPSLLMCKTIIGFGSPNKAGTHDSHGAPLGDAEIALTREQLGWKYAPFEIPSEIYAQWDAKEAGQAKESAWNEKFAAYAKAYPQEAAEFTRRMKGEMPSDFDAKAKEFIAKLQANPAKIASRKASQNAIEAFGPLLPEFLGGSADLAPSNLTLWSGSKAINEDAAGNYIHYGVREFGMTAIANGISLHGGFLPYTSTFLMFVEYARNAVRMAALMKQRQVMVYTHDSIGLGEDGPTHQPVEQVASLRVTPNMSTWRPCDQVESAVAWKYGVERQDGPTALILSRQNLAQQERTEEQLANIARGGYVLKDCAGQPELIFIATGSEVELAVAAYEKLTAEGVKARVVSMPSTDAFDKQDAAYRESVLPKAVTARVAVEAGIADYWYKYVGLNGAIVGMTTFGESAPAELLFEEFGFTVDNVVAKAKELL

Consider `O=CCO` [glycolaldehyde], for which the Km came to 20.3 mM.
